The text below walks through data of patent US8785478B2, “Viral polymerase inhibitors” (Biota Scientific Management Pty Ltd, priority 2012, dated 2014).

Data set [1] has as its target T1, 1b (BK) NS5BΔ21 (Hepatitis C virus genotype 1b, UniProt P26663).
T1 construct: 100 nM, 1b (BK) NS5BΔ21
The data set can be described thus: HCV Polymerase Inhibition Assay. In kind it is biochemical. The procedure:
HCV polymerase reactions were carried out using a modified method of Howe et al., Antimicrobial Agents and Chemotherapy 2004 48(12): 4813-4821. Reactions contained a final concentration of, 0.5% DMSO, 100 nM, 1b (BK) NS5BΔ21, 20 mM Tris-HCl pH 7.5, 5 mM MgCl2, 5 mM MnCl2, 3 mM DTT, 0.05% BSA, 0.2 U/μL RNasin, 10 μg/mL Poly(rC) template, GTP (at Km) and 0.05 μCi/μL ^33P-GTP in a total reaction volume of 50 μL. Compounds were tested in a three fold dilution series, for example starting from 50 μM. Reactions were initiated with the addition of GTP and terminated after 90 min with 50 μL ice cold 0.2 M EDTA. Terminated reactions were transferred to DEAE 96-well filter plates, unincorporated nucleotides washed from the filters and 50 μL scintillation fluid added prior to reading on a scintillation counter. The compound concentration that reduced ^33P-GTP incorporation by 50% (IC50) was calculated using non-linear regression.

A short description of data set [2]: Aqueous solubility (laser nephelometry). The data set is classed as physicochemical. The settings on record: for solubility at 30 min: aqueous assay buffer with 1% DMSO, kinetic from dmso stock, 30 minute incubation at 25° C.; for solubility in words: at both pH2 and pH 6.5. The procedure:
Test compounds prepared in DMSO were screened in duplicate over a range of concentrations (1.6-100 ug/mL) in different aqueous media (for example a pH6.5 buffers which are relevant to the stomach and upper regions of the small intestine and therefore important when predicting the amount of drug likely to be in solution following oral administration). Test compounds were serially diluted in 100% DMSO ranging from 10-0.16 mg/mL. These titrated DMSO stocks were then further diluted 1:100 with assay buffer and added to test plates (UV Star Griener 384 well plates), maintaining the DMSO concentration at 1%.

Data set [3] relates to subgenomic genotype 1a (H77) replicon cell line. The data set can be described thus: HCV replicon assay, genotype 1a (Renilla luciferase). The data set is classed as cell-based. The conditions noted are these: Hepatitis C virus; genotype 1a replicon; read-out: G1a (EC50 μM). The procedure:
(§1) A genotype 1b (Con 1) subgenomic replicon cell line based on Blight et al., Science 2000 290: 1972-1974, modified to express a Renilla luciferase reporter gene was used to assess antiviral activity of test compounds. Cell cultures were maintained in a sub-confluent state in DMEM with glutamine, 10% heat-inactivated foetal bovine serum (FBS) and G418 (Geneticin®).
(§2) For assay, cells were seeded at a density of 7000 cells/well into 96 well tissue culture trays in culture media lacking G418. Compounds were tested in a three fold dilution series, for example starting from 50 uM. After 72 hours incubation at 37° C. and 5% CO2, Renilla luciferase activity was quantified via the Promega Renilla Luciferase or Renilla-Glo™ Luciferase Assay Systems (Promega corporation. The same method was employed for replicon assays using subgenomic genotype 1a (H77) and 2a (JFH-1) replicon cell lines with a seeding cell density of 5000 cells/well for the 2a cell lines.
(§3) The compound concentration that reduced luciferase activity by 50% (EC50) was calculated using non-linear regression.

Data set [4] has as its system genotype 1b (Con 1) subgenomic replicon cell line. Kind of data set: HCV replicon assay, genotype 1b (Renilla luciferase). In kind it is cell-based. The conditions noted are these: Hepatitis C virus, genotype 1b replicon. The method, then: as §1, §2, §3
The nature of data set [5]: Cytotoxicity analysis (MTT). The settings on record: genotype 1b replicon cells, three days, read-out: G1b (CC50 μM). In kind it is cell-based. The procedure: Cytotoxicity of compounds against genotype 1b replicon cells was determined via metabolism of the vital dye 3-(4,5-dimethylthiaxol-2-yl)-2,5-diphenyltetrazolium bromide (MTT, for example see Watanabe et al., Journal of Virological Methods 1994 48:257-265). Plates were prepared as described for the HCV Replicon assay and cytotoxicity of the test article was evaluated after three days. MTT was added to assay plates followed by three hour incubation at 37° C. Wells were aspirated to dryness and the formazan dye dissolved by the addition of isopropanol. Absorbance values were read at 540/690 nm). The compound concentration that reduced cell viability by 50% (CC50) was calculated using non-linear regression.

Data set [6] relates to subgenomic genotype 2a (JFH-1) replicon cell line. The data set can be described thus: HCV replicon assay, genotype 2a (Renilla luciferase). In kind it is cell-based. The settings on record: Hepatitis C virus; genotype 2a replicon; read-out: G2a (EC50 μM). The procedure: as §1, §2, §3
The mark [7] stands for this setting: 1b polymerase IC50 (μM) range, genotype 1b NS5B, 33P-GTP incorporation.
Setting [8] is: NS5B G1b (IC50 μM), genotype 1b polymerase.
Where [9] appears, read: aqueous buffer, pH 6.5, 1% DMSO, read-out: Solubility pH 6.5.
Setting [10] is: simulated gastric fluid, pH 2, 1% DMSO, read-out: Solubility pH 2.
[11] abbreviates: 72 hours, read-out: genotype 1b EC50 (μM) range.

The structures appear in SMILES notation. ≈ marks a conversion by molar mass, not a printed value. Like-named read-outs stand apart in the source and are kept apart here.

T1 sequence (P26663 2420-2989, stated change not applied): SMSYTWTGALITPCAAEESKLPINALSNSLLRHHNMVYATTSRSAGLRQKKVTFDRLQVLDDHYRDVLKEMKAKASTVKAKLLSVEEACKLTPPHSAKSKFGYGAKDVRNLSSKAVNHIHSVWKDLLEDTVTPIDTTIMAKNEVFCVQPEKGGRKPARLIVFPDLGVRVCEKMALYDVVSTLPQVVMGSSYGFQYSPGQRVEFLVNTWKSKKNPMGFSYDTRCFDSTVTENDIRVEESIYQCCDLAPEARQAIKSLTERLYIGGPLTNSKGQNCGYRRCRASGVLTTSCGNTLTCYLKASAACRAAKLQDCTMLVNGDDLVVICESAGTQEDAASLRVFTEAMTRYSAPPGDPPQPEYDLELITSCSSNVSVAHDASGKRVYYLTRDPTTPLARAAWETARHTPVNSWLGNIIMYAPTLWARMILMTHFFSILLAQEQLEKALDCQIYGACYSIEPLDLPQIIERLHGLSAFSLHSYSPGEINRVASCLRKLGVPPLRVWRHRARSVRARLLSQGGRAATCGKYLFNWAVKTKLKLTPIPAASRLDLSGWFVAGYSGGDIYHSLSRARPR

For the compound `CCN(c1cc2nn(-c3ccc(C)cn3)c(C(=O)NC)c2cc1C1CC1)S(C)(=O)=O` [Compound 5, 5-cyclopropyl-6-[ethyl(methylsulfonyl)amino]-N-methyl-2-(5-methylpyridin-2-yl)-2H-indazole-3-carboxamide], the IC50 in data set [1] (setting [7]) was 0.1 to 0.49 µM; in data set [1] (setting [8]), 0.283 µM. For the same compound, the “times more potent than Compound A” value in data set [1] (in each of the HCV assays tested (polymerase, replicon)) is “at least 10 times”. Besides, the solubility at 30 min in data set [2] (setting [9]) and in data set [2] (setting [10]) was more than 100 µg/mL each time. Moreover, the solubility in words result in data set [2] is reported as “good solubility”. Also, the EC50 in data set [3] is 0.068 µM; in data set [4] (setting [11]) it was less than 0.1 µM; in data set [4] (read-out: G1b (EC50 μM)), 0.03 µM; in data set [6], 0.147 µM. Also, the half-maximal cytotoxic concentration (CC50) at 3 days in data set [5] was more than 50 µM.

With `CNC(=O)c1c2cc(C3CC3)c(N(CCC3(C)COC3)S(C)(=O)=O)cc2nn1-c1ccc(C)cn1` [Compound 11, 5-cyclopropyl-N-methyl-6-{[2-(3-methyloxetan-3-yl)ethyl](methylsulfonyl)amino}-2-(5-methylpyridin-2-yl)-2H-indazole-3-carboxamide], the half-inhibitory concentration (IC50) in data set [1] (setting [7]) is 0.1 to 0.49 µM; in data set [1] (setting [8]) it was 0.4 µM. Besides, the solubility at 30 min in data set [2] (setting [9]) and in data set [2] (setting [10]) was 50 to 100 µg/mL (≈ 100 to 201 µM) in each case. The half-maximal effective concentration (EC50) is 0.013 µM in data set [3], less than 0.1 µM in data set [4] (setting [11]), 0.028 µM in data set [4] (read-out: G1b (EC50 μM)) and 0.183 µM in data set [6]. Also, the CC50 at 3 days in data set [5] was more than 50 µM.

Take `CCN(c1cc2nn(-c3ccc(C)nc3)c(C(=O)NC)c2cc1C1CC1)S(C)(=O)=O` [Compound A, 5-Cyclopropyl-6-[ethyl(methylsulfonyl)amino]-N-methyl-2-(6-methylpyridin-3-yl)-2H-indazole-3-carboxamide, reference compound]: the half-inhibitory concentration (IC50) in data set [1] (setting [8]) stood at 3.36 µM. For the same compound, the solubility at 30 min in data set [2] (setting [9]) was 6.3 to 12.5 µg/mL (≈ 14.7 to 29.2 µM); in data set [2] (setting [10]), less than 1.6 µg/mL. The solubility in words entry in data set [2] is “very poorly soluble”. Besides, the EC50 worked out at 3.17 µM in data set [3], 0.774 µM in data set [4] (read-out: G1b (EC50 μM)) and 3.59 µM in data set [6]. For the same compound, in data set [5], the CC50 at 3 days was more than 50 µM.
